The results in this text go back to patent EP0400319A1, “4-(4'-Halophenyl)-2-methyl-1,2,3,4-tetrahydroisoquinolines and process for their preparation” (N I S PRI VCHTI, priority 1989, dated 1990).

Several values for one entry are separate records, joined by “and”; a condition that tells them apart may be missing. Equal entries are not always repeated. Structures can show the parent of a compound that is named as a salt.

This experiment relates to durch Wasser-Immersionsstreß verursachte Magengeschwüre. In words: Water-immersion stress induced gastric ulcers in rats. It is filed as in vivo, Ratten. The note with it: for Geschwürindex: 5 h water immersion; for Antiulkuswirkung im Vergleich zum Präparat Ranitidin: ratio of doses giving about 52% inhibition. From the text: Untersucht wurde auch die Antiulkusaktivität der razemischen 1a- und 1b-Verbindungen auf ein experimentelles Modell von Wasser-Immersionsstreß verursachten Magengeschwüren bei Ratten (Tabelle 2). Das Vergleichspräparat war der H₂-Antagonist Ranitidin.
Bestimmung der inhibierenden Wirkung von 1a und 1b auf durch Wasser-Immersionsstreß verursachte Magengeschwüre bei Ratten
Die Versuche wurden mit 280 weißen männlichen Ratten der Rasse Wistar mit einem Gewicht von 150 bis 200 g nach der in K. Takadi, Y. Ischii, Arzneim. Forsch. Drug Res., 1967, 17, 1544, beschriebenen Methode durchgeführt. 18 h vor dem Versuch hungern die Tiere unter freiem Wasserzutritt. Die Versuchsverbindung wird oral verabreicht, worauf die Tiere unbeweglich und voneinander isoliert auf dem Rücken auf eine Unterlage gebunden werden. Man legt die Tiere bei 17-18°C ins Wasser und tötet sie nach 5 h. Die Mägen werden entnommen und die destruktiven Veränderungen makroskopisch bestimmt.

In the case of `CN1Cc2ccccc2C(c2ccc(Br)cc2)C1` (racemic) [1a, 4-(4′-Bromphenyl)-2-methyl-1,2,3,4-tetrahydroisochinolin Hydrochlorid], the ED50 (Rattus norvegicus, 5 h, oral, Inhibierungsgrad 52% at this dose, read-out: durchschnittliche effektive Dosis) was 0.5 mg/kg. Further, the “Dosis, bei der der Inhibierungsgrad ein Maximum erreicht” value (oral) came out at 3 mg/kg. The “Unterdrückung des Geschwürindex” value is, setting by setting: (oral, 0,050 mg/kg) 20,6%; (oral, 0,100 mg/kg) 48,9% and 48,3%; (oral, 0,500 mg/kg) 52,1%; (oral, 1,000 mg/kg) 58,9%; (oral, 3,000 mg/kg) 70,3%. Also, the Geschwürindex is given as 69 ±18,2 (oral, 0,050 mg/kg); 44,4 ± 9,66 (oral, 0,100 mg/kg); 30,8 ±17,7 (oral, 0,500 mg/kg); 35,7 ±14,2 (oral, 1,000 mg/kg); 19,5 ±12,3 (oral, 3,000 mg/kg). Moreover, the “Antiulkuswirkung im Vergleich zum Präparat Ranitidin” value (oral) came to 20 Mal.

As for `CNC(=C[N+](=O)[O-])NCCSCc1ccc(CN(C)C)o1` [Ranitidin, reference compound], the “Unterdrückung des Geschwürindex” value was 46,98% (oral, 10 mg/kg); 61,62% (oral, 30 mg/kg); 27% (oral, 0,500 mg/kg); 39,27% (oral, 1,000 mg/kg); 35,89% (oral, 3,000 mg/kg). Moreover, the Geschwürindex by setting is: (oral, 10 mg/kg) 22,8; (oral, 30 mg/kg) 17,0; (oral, 0,500 mg/kg) 32,3; (oral, 1,000 mg/kg) 26,9; (oral, 3,000 mg/kg) 28,4.

Consider `CN1Cc2ccccc2C(c2ccc(F)cc2)C1` (racemic) [1b, 4-(4′-fluorphenyl)-2-methyl-1,2,3,4-tetrahydroisochinolin Hydrochlorid], for which, where the note is “oral, 1,000 mg/kg”, the “Unterdrückung des Geschwürindex” value was 41,53% and the Geschwürindex was 38,5 ± 7,75. Further, for the setting “oral, 3,000 mg/kg”, the “Unterdrückung des Geschwürindex” value is recorded as 57,98% and the Geschwürindex is listed as 27,66±12,73. Moreover, the “Antiulkuswirkung im Vergleich zum Präparat Ranitidin” value (oral) is reported as “Ähnliche Ergebnisse”.
